From PubChem BioAssay AID258 (DTP/NCI, 2004)
Toxic doses and inconclusive results are not listed. The calls were made as follows: active = survival T/C of 150% or more; inactive = T/C below 125% in these data.

Test system: CD2F1 mice, L1210 leukemia sc, survival T/C
Assay: NCI In Vivo Anticancer Drug Screen. Data for tumor model L1210 Leukemia (subcutaneous) in CD2F1 (CDF1) mice
Details: endpoint: median survival time, higher = longer survival
Procedure, shortened: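 Mice with transplanted tumor dosed; survival/tumor size read; T/C vs vehicle controls.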

Measured: T/C

CNNCc1ccc(C(=O)NC(N)=O)cc1
inactive: dose: 50.0 mg/kg/injection, schedule: Q01DX Z (sc), vehicle: saline 94 % of control | dose: 100.0 mg/kg/injection, schedule: Q01DX Z (sc), vehicle: saline 105 % of control | dose: 200.0 mg/kg/injection, schedule: Q01DX Z (sc), vehicle: saline 105 % of control | dose: 400.0 mg/kg/injection, schedule: Q01DX Z (sc), vehicle: saline 94 % of control

Nc1ncnc2c1ccn2C1OC(CO)C(O)C1O (stereo unspecified)
inactive: dose: 0.25 mg/kg/injection, schedule: Q01DX009 (ip), vehicle: Klucel (hydroxypropylcellulose) (HPC) 102 % of control | dose: 0.5 mg/kg/injection, schedule: Q01DX009 (ip), vehicle: Klucel (hydroxypropylcellulose) (HPC) 97 % of control | dose: 1.0 mg/kg/injection, schedule: Q01DX009 (ip), vehicle: Klucel (hydroxypropylcellulose) (HPC) 92 % of control | dose: 2.0 mg/kg/injection, schedule: Q01DX009 (ip), vehicle: Klucel (hydroxypropylcellulose) (HPC) 95 % of control | dose: 4.0 mg/kg/injection, schedule: Q01DX009 (ip), vehicle: Klucel (hydroxypropylcellulose) (HPC) 97 % of control | dose: 8.0 mg/kg/injection, schedule: Q01DX009 (ip), vehicle: Klucel (hydroxypropylcellulose) (HPC) 102 % of control | dose: 16.0 mg/kg/injection, schedule: Q01DX009 (ip), vehicle: Klucel (hydroxypropylcellulose) (HPC) 101 % of control
